PubChem BioAssay (NCI)
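Method: 48-hour compound exposure of cells in 96-well plates, five concentrations, linear interpolation of endpoints. At the TGI there is no net growth.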

Assays:
Assay in all cases: growth of human tumour cells (NCI), 48 h
[1] = test system: 786-0 renal
[2] = test system: A549 NSCLC
[3] = test system: ACHN renal
[4] = test system: BT-549 breast
[5] = test system: CAKI-1 renal
[6] = test system: CCRF-CEM leukemia
[7] = test system: COLO 205 colon
[8] = test system: DU-145 prostate
[9] = test system: EKVX NSCLC
[10] = test system: HCC-2998 colon
[11] = test system: HCT-116 colon
[12] = test system: HCT-15 colon
[13] = test system: HOP-62 NSCLC
[14] = test system: HOP-92 NSCLC
[15] = test system: HS 578T breast
[16] = test system: HT29 colon
[17] = test system: IGROV1 ovarian
[18] = test system: K-562 leukemia
[19] = test system: KM12 colon
[20] = test system: LOX IMVI melanoma
[21] = test system: M14 melanoma
[22] = test system: MALME-3M melanoma
[23] = test system: MCF7 breast
[24] = test system: MDA-MB-231 breast
[25] = test system: MDA-MB-435
[26] = test system: MDA-N
[27] = test system: MOLT-4 leukemia
[28] = test system: NCI-H23 lung
[29] = test system: NCI-H460 lung
[30] = test system: NCI-H522 lung
[31] = test system: NCI/ADR-RES ovarian
[32] = test system: OVCAR-3 ovarian
[33] = test system: OVCAR-4 ovarian
[34] = test system: OVCAR-5 ovarian
[35] = test system: OVCAR-8 ovarian
[36] = test system: PC-3 prostate
[37] = test system: SF-268 CNS
[38] = test system: SF-295 CNS
[39] = test system: SF-539 CNS
[40] = test system: SK-MEL-2 melanoma
[41] = test system: SK-MEL-28 melanoma
[42] = test system: SK-MEL-5 melanoma
[43] = test system: SK-OV-3 ovarian
[44] = test system: SN12C renal
[45] = test system: SNB-19 CNS
[46] = test system: SNB-75 CNS
[47] = test system: SR leukemia
[48] = test system: SW-620 colon
[49] = test system: T-47D breast
[50] = test system: TK-10 renal
[51] = test system: U251 CNS
[52] = test system: UACC-257 melanoma
[53] = test system: UACC-62 melanoma
[54] = test system: UO-31 renal
[55] = test system: A498 renal
[56] = test system: HL-60(TB) leukemia
[57] = test system: NCI-H226 lung
[58] = test system: RPMI-8226 leukemia
[59] = test system: RXF 393 renal

SMILES: COC1=N[C@H](C(C)C)C(OC)=N[C@H]1Cc1ccc(C[C@@H]2N=C(OC)[C@@H](C(C)C)N=C2OC)s1
- TGI [1]: > 100 µM
- TGI [2]: > 100 µM
- TGI [3]: > 100 µM
- TGI [4]: > 100 µM
- TGI [5]: > 100 µM
- TGI [6]: 50.3 µM
- TGI [7]: > 100 µM
- TGI [8]: > 100 µM
- TGI [9]: > 100 µM
- TGI [10]: > 100 µM
- TGI [11]: > 100 µM
- TGI [12]: > 100 µM
- TGI [13]: > 100 µM
- TGI [14]: > 100 µM
- TGI [15]: > 100 µM
- TGI [16]: 96.3 µM
- TGI [17]: > 100 µM
- TGI [18]: > 100 µM
- TGI [19]: > 100 µM
- TGI [20]: > 100 µM
- TGI [21]: > 100 µM
- TGI [22]: > 100 µM
- TGI [23]: 59.4 µM
- TGI [24]: > 100 µM
- TGI [25]: > 100 µM
- TGI [26]: > 100 µM
- TGI [27]: 41 µM
- TGI [28]: 72.9 µM
- TGI [29]: > 100 µM
- TGI [30]: 63.2 µM
- TGI [31]: > 100 µM
- TGI [32]: > 100 µM
- TGI [33]: > 100 µM
- TGI [34]: 77.9 µM
- TGI [35]: > 100 µM
- TGI [36]: 69.2 µM
- TGI [37]: > 100 µM
- TGI [38]: > 100 µM
- TGI [39]: > 100 µM
- TGI [40]: 49.3 µM
- TGI [41]: > 100 µM
- TGI [42]: 47.8 µM
- TGI [43]: > 100 µM
- TGI [44]: > 100 µM
- TGI [45]: > 100 µM
- TGI [46]: > 100 µM
- TGI [47]: 51 µM
- TGI [48]: > 100 µM
- TGI [49]: 38.9 µM
- TGI [50]: > 100 µM
- TGI [51]: 70.5 µM
- TGI [52]: 97.1 µM
- TGI [53]: > 100 µM
- TGI [54]: > 100 µM

SMILES: N#Cc1c(C#N)c(-c2ccccc2)n(Cc2ccccc2)c1N
- TGI [1]: > 100 µM
- TGI [55]: > 100 µM
- TGI [2]: > 100 µM
- TGI [3]: > 100 µM
- TGI [4]: > 100 µM
- TGI [5]: > 100 µM
- TGI [6]: > 100 µM
- TGI [7]: > 100 µM
- TGI [8]: > 100 µM
- TGI [9]: > 100 µM
- TGI [10]: > 100 µM
- TGI [11]: > 100 µM
- TGI [12]: > 100 µM
- TGI [56]: > 100 µM
- TGI [13]: > 100 µM
- TGI [15]: > 100 µM
- TGI [16]: > 100 µM
- TGI [17]: > 100 µM
- TGI [18]: > 100 µM
- TGI [19]: > 100 µM
- TGI [20]: > 100 µM
- TGI [21]: > 100 µM
- TGI [22]: > 100 µM
- TGI [23]: > 100 µM
- TGI [24]: 86.4 µM
- TGI [25]: > 100 µM
- TGI [26]: > 100 µM
- TGI [27]: > 100 µM
- TGI [57]: > 100 µM
- TGI [28]: > 100 µM
- TGI [30]: > 100 µM
- TGI [31]: > 100 µM
- TGI [32]: > 100 µM
- TGI [33]: > 100 µM
- TGI [34]: > 100 µM
- TGI [35]: 75.4 µM
- TGI [36]: > 100 µM
- TGI [58]: > 100 µM
- TGI [59]: > 100 µM
- TGI [37]: > 100 µM
- TGI [38]: > 100 µM
- TGI [39]: 63.4 µM
- TGI [40]: > 100 µM
- TGI [42]: > 100 µM
- TGI [43]: > 100 µM
- TGI [44]: > 100 µM
- TGI [45]: > 100 µM
- TGI [46]: 64.7 µM
- TGI [47]: > 100 µM
- TGI [48]: > 100 µM
- TGI [49]: > 100 µM
- TGI [50]: > 100 µM
- TGI [51]: > 100 µM
- TGI [52]: > 100 µM
- TGI [53]: > 100 µM
- TGI [54]: > 100 µM

SMILES: Cc1c[nH]c(C(=O)O)c1-c1cccn1-c1ccc(Cl)cc1[N+](=O)[O-]
- TGI [1]: > 100 µM
- TGI [55]: > 100 µM
- TGI [2]: > 100 µM
- TGI [3]: > 100 µM
- TGI [4]: > 100 µM
- TGI [5]: > 100 µM
- TGI [6]: > 100 µM
- TGI [7]: > 100 µM
- TGI [8]: > 100 µM
- TGI [9]: > 100 µM
- TGI [10]: > 100 µM
- TGI [11]: > 100 µM
- TGI [12]: > 100 µM
- TGI [13]: > 100 µM
- TGI [14]: > 100 µM
- TGI [15]: > 100 µM
- TGI [16]: > 100 µM
- TGI [17]: > 100 µM
- TGI [18]: > 100 µM
- TGI [19]: > 100 µM
- TGI [20]: > 100 µM
- TGI [21]: > 100 µM
- TGI [23]: > 100 µM
- TGI [24]: > 100 µM
- TGI [25]: > 100 µM
- TGI [26]: > 100 µM
- TGI [27]: > 100 µM
- TGI [57]: > 100 µM
- TGI [28]: > 100 µM
- TGI [29]: > 100 µM
- TGI [30]: > 100 µM
- TGI [31]: > 100 µM
- TGI [32]: > 100 µM
- TGI [33]: > 100 µM
- TGI [34]: > 100 µM
- TGI [35]: > 100 µM
- TGI [36]: > 100 µM
- TGI [59]: > 100 µM
- TGI [37]: > 100 µM
- TGI [38]: > 100 µM
- TGI [39]: > 100 µM
- TGI [40]: > 100 µM
- TGI [41]: > 100 µM
- TGI [42]: > 100 µM
- TGI [43]: > 100 µM
- TGI [44]: > 100 µM
- TGI [46]: > 100 µM
- TGI [47]: > 100 µM
- TGI [48]: > 100 µM
- TGI [49]: > 100 µM
- TGI [50]: > 100 µM
- TGI [51]: > 100 µM
- TGI [52]: > 100 µM
- TGI [53]: > 100 µM
- TGI [54]: > 100 µM

SMILES: CCOC(=O)c1nc2ccccc2n(CC)c1=O
- TGI [55]: > 100 µM
- TGI [2]: > 100 µM
- TGI [3]: > 100 µM
- TGI [4]: > 100 µM
- TGI [5]: > 100 µM
- TGI [6]: > 100 µM
- TGI [7]: > 100 µM
- TGI [8]: > 100 µM
- TGI [9]: > 100 µM
- TGI [10]: > 100 µM
- TGI [11]: > 100 µM
- TGI [12]: > 100 µM
- TGI [56]: > 100 µM
- TGI [13]: > 100 µM
- TGI [14]: > 100 µM
- TGI [15]: > 100 µM
- TGI [16]: > 100 µM
- TGI [17]: > 100 µM
- TGI [18]: > 100 µM
- TGI [19]: > 100 µM
- TGI [20]: > 100 µM
- TGI [21]: > 100 µM
- TGI [22]: > 100 µM
- TGI [23]: > 100 µM
- TGI [24]: > 100 µM
- TGI [25]: > 100 µM
- TGI [26]: > 100 µM
- TGI [27]: > 100 µM
- TGI [57]: > 100 µM
- TGI [28]: > 100 µM
- TGI [29]: > 100 µM
- TGI [30]: > 100 µM
- TGI [31]: > 100 µM
- TGI [32]: > 100 µM
- TGI [33]: > 100 µM
- TGI [34]: > 100 µM
- TGI [35]: > 100 µM
- TGI [36]: > 100 µM
- TGI [58]: > 100 µM
- TGI [59]: > 100 µM
- TGI [37]: > 100 µM
- TGI [38]: > 100 µM
- TGI [39]: > 100 µM
- TGI [40]: > 100 µM
- TGI [41]: > 100 µM
- TGI [42]: > 100 µM
- TGI [43]: > 100 µM
- TGI [44]: > 100 µM
- TGI [45]: > 100 µM
- TGI [47]: > 100 µM
- TGI [48]: > 100 µM
- TGI [49]: > 100 µM
- TGI [50]: > 100 µM
- TGI [51]: > 100 µM
- TGI [52]: > 100 µM
- TGI [53]: > 100 µM
- TGI [54]: > 100 µM
